Source: ChEMBL document CHEMBL1201862, “PubChem BioAssay data set” (2004)
Values belong to the molecule of their own block, whether it stands above or below them. Active and inactive are the calls of the source.

How the values were obtained:
[1] = biological target: DNA dC->dU-editing enzyme APOBEC-3A (Homo sapiens, UniProt P31941); test: Dose Response confirmation of small molecule APOBEC3A DNA Deaminase Inhibitors via a fluorescence-based single-stranded DNA deaminase assay. [Related pubchem assays (depositor defined):AID493011, AID493024]; type: functional
Sequence of DNA dC->dU-editing enzyme APOBEC-3A (P31941 whole entry): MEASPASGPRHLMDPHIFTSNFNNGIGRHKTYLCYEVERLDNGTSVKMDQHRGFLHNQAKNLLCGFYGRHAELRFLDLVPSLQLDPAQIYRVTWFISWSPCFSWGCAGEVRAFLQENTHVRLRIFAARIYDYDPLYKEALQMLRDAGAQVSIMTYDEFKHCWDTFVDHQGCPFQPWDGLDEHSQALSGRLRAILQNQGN

[2] = biological target: DNA dC->dU-editing enzyme APOBEC-3G (Homo sapiens, UniProt Q9HC16); type: functional;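 note: Dose-response counterscreen measuring inhibition of APOBEC3G DNA deaminase activity, run while confirming APOBEC3A inhibitors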
Sequence of DNA dC->dU-editing enzyme APOBEC-3G (Q9HC16 whole entry): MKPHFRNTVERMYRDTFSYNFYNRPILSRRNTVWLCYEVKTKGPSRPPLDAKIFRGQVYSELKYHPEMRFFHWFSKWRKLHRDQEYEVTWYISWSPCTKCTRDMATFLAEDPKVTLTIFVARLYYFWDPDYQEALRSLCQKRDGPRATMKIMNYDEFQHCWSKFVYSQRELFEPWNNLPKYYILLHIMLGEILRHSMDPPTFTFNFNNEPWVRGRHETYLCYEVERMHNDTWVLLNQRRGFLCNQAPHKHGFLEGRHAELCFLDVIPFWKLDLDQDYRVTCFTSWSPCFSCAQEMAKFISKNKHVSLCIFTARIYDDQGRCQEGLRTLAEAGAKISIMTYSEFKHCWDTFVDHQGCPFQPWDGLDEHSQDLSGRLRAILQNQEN

[3] = biological target: T1, Zinc finger protein mex-5 (Caenorhabditis elegans, UniProt Q9XUB2); test: potency of MEX-5 RNA-binding blockers – biochemical, C. elegans, fluorescence polarization, dose response (AID 1960)
T1 sequence (Q9XUB2 whole entry): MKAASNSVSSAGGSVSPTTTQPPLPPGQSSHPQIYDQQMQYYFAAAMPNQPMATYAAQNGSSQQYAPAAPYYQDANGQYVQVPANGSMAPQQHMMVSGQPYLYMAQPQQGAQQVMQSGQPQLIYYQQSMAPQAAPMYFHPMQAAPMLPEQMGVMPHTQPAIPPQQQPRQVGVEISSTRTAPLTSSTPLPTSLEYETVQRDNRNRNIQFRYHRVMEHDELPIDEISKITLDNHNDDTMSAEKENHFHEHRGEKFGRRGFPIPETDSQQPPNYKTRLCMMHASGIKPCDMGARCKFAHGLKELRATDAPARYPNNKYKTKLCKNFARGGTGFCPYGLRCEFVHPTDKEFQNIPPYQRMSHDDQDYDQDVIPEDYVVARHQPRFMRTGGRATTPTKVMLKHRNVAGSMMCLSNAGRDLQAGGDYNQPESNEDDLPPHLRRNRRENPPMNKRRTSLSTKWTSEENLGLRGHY

[4] = biological target: Genome polyprotein (dengue virus type 2, UniProt P29990); test: flavivirus cap methylation enzyme inhibition – biochemical, confirmation dose response, primary screen (AID 588689); type: functional
Sequence of Genome polyprotein (P29990 2492-3391 limits assumed): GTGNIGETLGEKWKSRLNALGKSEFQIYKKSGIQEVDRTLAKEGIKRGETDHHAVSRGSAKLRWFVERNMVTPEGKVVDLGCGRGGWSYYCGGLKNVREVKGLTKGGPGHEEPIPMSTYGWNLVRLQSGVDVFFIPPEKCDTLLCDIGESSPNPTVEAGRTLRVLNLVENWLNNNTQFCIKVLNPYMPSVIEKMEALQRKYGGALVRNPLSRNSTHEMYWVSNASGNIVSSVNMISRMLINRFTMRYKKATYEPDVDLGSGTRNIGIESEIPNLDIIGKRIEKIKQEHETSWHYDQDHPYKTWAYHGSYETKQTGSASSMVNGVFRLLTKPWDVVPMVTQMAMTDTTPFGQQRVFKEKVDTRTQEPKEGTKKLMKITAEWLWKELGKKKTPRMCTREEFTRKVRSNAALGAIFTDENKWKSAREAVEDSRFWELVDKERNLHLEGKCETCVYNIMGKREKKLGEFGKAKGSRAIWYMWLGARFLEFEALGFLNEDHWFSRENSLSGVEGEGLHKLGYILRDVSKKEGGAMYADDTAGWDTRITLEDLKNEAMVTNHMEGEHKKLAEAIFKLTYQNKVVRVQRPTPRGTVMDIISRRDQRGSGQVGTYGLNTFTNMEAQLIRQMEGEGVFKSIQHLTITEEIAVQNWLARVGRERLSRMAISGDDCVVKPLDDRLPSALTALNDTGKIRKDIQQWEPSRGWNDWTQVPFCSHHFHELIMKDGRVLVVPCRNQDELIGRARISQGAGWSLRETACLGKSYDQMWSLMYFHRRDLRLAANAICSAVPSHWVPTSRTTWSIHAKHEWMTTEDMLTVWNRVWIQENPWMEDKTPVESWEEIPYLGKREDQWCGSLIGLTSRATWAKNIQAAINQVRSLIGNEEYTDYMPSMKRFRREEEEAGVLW

[5] = biological target: T2, Carboxy-terminal domain RNA polymerase II polypeptide A small phosphatase 1 (Homo sapiens, UniProt Q9GZU7); test: CTDSP1 inhibitors, concentration-response, biochemical, absorbance readout, ultra-high-throughput screen actives (AID 540297); type: functional
T2 sequence (Q9GZU7 whole entry): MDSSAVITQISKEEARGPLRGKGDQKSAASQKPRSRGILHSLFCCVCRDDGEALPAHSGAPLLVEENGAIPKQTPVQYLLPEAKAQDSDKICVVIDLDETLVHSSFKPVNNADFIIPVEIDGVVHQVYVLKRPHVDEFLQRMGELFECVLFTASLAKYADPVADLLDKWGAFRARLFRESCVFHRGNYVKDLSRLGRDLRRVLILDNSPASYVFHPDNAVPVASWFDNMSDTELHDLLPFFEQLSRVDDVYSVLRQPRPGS

[6] = biological target: T3, RNA-binding protein pos-1 (Caenorhabditis elegans, UniProt G5EF15); test: disruptors of C. elegans POS-1 RNA interaction – biochemical, fluorescence polarization, dose response (AID 1964);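 note: purified POS-1 fused to maltose binding protein made in E. coli; potency of compounds blocking POS-1 binding to fluorescent RNA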
T3 sequence (G5EF15 whole entry): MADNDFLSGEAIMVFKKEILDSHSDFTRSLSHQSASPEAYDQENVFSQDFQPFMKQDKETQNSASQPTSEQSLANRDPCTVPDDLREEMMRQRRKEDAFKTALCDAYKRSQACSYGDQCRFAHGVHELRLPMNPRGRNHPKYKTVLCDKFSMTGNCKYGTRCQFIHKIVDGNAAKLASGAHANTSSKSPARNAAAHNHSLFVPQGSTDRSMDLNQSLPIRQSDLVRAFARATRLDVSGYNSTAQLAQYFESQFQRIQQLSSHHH

[7] = viability of uninfected HEp-2 cells – cell-based, HTS, cytotoxicity control for RSV inhibitor project, dose response (AID 2410); type: functional; details: human respiratory syncytial virus
[8] = biological target: G-protein coupled receptor 55 (Homo sapiens, UniProt Q9Y2T6); test: inhibition of LPI-stimulated GPR55 beta-arrestin translocation – imaging, U2OS, beta-arrestin-GFP, LPI agonist, primary screen (AID 2013); type: functional;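 note: antagonist potency measured as reduced agonist-driven arrestin aggregation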
Sequence of G-protein coupled receptor 55 (Q9Y2T6 whole entry): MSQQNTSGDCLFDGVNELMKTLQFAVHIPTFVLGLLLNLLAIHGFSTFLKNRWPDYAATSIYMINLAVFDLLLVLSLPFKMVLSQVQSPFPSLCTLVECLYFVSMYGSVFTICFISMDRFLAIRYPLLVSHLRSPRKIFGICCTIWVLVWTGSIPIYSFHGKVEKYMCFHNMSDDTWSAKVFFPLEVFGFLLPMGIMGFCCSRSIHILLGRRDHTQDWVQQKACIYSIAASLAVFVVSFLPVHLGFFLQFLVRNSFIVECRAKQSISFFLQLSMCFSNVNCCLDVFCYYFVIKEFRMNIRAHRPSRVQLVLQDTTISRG

[9] = system: Escherichia coli; test: microbe, parasite or virus in culture
[10] = biological target: T4, Coagulation factor XII (Homo sapiens, UniProt P00748); type: functional;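 note: activated factor XIIa alpha cleaving a fluorogenic AMC peptide substrate; inhibitor potency from loss of enzyme activity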
T4 sequence (P00748 whole entry): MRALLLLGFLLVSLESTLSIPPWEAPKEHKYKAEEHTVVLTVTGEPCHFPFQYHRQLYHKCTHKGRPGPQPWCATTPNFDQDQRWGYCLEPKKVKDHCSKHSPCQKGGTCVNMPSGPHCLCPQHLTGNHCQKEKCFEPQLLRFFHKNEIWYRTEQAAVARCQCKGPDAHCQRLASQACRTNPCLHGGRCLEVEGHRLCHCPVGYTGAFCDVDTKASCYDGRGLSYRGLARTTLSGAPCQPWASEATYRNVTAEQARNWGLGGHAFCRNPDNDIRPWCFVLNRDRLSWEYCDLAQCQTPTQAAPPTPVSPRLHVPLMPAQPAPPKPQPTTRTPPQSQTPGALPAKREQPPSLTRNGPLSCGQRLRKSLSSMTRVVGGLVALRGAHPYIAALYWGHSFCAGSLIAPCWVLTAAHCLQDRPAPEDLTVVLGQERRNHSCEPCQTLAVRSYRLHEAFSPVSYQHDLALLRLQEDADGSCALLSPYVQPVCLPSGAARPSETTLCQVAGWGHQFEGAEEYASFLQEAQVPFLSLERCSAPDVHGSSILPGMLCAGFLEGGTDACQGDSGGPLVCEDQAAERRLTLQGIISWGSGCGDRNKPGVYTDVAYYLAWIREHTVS

[11] = biological target: Peroxisome proliferator-activated receptor gamma/Nuclear receptor coactivator 1 (Homo sapiens, UniProt P37231); type: functional;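 note: agonist potency as compounds enhance coactivator SRC-1 recruitment to PPARgamma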
[12] = biological target: Peroxisome proliferator-activated receptor gamma/Nuclear receptor coactivator 2 (Homo sapiens, UniProt P37231); type: functional;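 note: agonist potency for raising coactivator recruitment to the receptor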
[13] = biological target: Induced myeloid leukemia cell differentiation protein Mcl-1 (Homo sapiens, UniProt Q07820); type: functional
Sequence of Induced myeloid leukemia cell differentiation protein Mcl-1 (Q07820 whole entry): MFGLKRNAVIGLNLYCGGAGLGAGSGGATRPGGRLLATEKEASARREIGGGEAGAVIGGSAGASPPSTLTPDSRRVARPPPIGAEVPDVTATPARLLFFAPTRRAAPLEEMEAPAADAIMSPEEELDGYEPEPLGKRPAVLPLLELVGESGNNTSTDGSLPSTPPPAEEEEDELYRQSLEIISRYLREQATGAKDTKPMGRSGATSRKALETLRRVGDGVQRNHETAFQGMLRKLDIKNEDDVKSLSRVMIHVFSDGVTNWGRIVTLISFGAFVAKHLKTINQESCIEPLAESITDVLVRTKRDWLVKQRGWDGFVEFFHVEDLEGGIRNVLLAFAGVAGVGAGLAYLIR

[14] = biological target: Peroxisome proliferator-activated receptor gamma/Nuclear receptor coactivator 3 (Homo sapiens, UniProt P37231); type: functional;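 note: agonist potency for raising coactivator recruitment to the receptor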
[15] = biological target: T5, Rac GTPase-activating protein 1 (Homo sapiens, UniProt Q9H0H5); test: blockers of MgcRacGAP-driven Rac1 GTP hydrolysis – biochemical, ADP Hunter fluorescence, primary and confirmatory, confirmation (AID 624330); type: functional
T5 sequence (Q9H0H5 whole entry): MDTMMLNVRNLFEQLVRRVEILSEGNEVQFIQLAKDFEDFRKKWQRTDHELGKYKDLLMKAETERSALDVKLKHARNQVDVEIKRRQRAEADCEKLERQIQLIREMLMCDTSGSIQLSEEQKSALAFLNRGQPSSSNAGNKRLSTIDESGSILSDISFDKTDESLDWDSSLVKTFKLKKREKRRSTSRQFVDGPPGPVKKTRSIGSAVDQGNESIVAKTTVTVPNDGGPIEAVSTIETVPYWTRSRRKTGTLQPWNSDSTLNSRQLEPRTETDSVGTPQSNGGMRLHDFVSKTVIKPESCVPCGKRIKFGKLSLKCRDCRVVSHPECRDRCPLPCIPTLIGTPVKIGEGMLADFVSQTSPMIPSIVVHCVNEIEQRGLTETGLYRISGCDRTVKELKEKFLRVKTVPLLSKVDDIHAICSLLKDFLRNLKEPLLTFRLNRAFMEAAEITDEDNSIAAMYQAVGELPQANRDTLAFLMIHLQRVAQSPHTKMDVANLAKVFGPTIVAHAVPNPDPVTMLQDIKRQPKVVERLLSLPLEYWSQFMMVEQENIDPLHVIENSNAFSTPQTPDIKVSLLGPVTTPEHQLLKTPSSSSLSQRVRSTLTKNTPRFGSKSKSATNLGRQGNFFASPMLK

[16] = system: HEK293; test: inhibition of NOD1-driven NF-kB reporter – cell-based, luminescence, uHTS, primary screen (AID 1578); type: functional; details: Homo sapiens
[17] = system: HEK293; test: cells; type: functional, cell-based; details: Homo sapiens
[18] = system: HEK293; test: cells; type: functional, cell-based; details: Homo sapiens; remark: listed apart in the source
[19] = system: HEK293; test: NOD2 signaling inhibitors in MDP-stimulated cells, cell-based, uHTS, luminescence (AID 2001); type: functional; details: Homo sapiens
[20] = biological target: Nucleotide-binding oligomerization domain-containing protein 2 (Homo sapiens, UniProt Q9HC29); test: inhibition of NOD2-driven NF-kB reporter – cell-based, luminescence, uHTS, HEK293 (AID 1566); type: functional
Sequence of Nucleotide-binding oligomerization domain-containing protein 2 (Q9HC29 whole entry, the tested form may be a part): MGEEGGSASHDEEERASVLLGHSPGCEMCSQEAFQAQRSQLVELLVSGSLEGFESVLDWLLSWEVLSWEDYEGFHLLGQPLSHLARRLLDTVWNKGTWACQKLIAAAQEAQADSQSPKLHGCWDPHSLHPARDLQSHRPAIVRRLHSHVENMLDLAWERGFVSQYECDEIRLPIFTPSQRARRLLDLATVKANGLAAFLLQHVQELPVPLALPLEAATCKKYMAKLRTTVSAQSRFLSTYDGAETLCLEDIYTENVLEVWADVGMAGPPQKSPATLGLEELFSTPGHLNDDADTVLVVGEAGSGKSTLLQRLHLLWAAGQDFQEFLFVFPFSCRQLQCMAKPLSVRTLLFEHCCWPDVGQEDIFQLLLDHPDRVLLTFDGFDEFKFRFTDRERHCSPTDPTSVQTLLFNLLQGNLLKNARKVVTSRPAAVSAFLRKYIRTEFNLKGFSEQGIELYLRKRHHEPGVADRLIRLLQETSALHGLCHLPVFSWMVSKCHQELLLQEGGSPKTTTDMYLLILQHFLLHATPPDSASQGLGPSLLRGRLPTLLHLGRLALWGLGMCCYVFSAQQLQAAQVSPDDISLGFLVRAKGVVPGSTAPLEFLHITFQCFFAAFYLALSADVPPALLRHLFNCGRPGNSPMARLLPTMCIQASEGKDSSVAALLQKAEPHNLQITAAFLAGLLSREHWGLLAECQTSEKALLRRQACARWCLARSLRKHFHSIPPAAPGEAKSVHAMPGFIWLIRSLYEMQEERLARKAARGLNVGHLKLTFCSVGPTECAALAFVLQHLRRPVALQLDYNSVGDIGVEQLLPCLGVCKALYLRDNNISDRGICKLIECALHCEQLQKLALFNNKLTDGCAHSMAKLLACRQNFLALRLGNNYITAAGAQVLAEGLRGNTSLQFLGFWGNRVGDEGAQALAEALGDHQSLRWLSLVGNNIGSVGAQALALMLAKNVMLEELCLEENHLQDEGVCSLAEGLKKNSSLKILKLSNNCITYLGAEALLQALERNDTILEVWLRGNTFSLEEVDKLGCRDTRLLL

[21] = system: HEK293; test: cells; type: functional, cell-based; details: Homo sapiens; remark: listed apart in the source
[22] = biological target: T6, Alkaline phosphatase, tissue-nonspecific isozyme (Homo sapiens, UniProt P05186); test: potency against alkaline phosphatase TNAP – biochemical, luminescent, dose response, SAR follow-up (AID 1056)
T6 sequence (P05186 whole entry): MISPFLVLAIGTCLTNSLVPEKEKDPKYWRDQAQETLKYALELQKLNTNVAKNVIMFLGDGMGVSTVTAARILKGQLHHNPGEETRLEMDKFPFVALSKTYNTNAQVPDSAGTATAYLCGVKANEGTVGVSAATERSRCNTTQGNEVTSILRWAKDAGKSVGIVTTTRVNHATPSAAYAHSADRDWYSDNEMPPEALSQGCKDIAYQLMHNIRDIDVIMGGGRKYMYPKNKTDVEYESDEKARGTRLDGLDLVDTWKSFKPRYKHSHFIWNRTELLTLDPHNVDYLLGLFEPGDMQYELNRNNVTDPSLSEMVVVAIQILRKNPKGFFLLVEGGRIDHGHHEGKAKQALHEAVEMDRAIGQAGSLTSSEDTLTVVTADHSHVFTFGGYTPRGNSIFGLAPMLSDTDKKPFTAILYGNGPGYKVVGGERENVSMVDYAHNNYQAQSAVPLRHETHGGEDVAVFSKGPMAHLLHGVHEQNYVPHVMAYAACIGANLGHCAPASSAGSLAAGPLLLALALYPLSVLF

[23] = NIH-3T3 fibroblast cytotoxicity, dose response, cytotoxicity control, cell-based, fluorescence, Alamar Blue, secondary assay (AID 2327); type: functional;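 note: NIH-3T3 mouse fibroblasts cultured with fluconazole at 8 µg/mL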
[24] = fluconazole-exposed Candida albicans growth modulators – fluorescence, retest, confirmation (AID 2467); type: functional, cell-based
[25] = biological target: T7, Ubiquitin-conjugating enzyme E2 N (Homo sapiens, UniProt P61088); type: functional;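 note: Dose-response confirmation in a TR-FRET assay detecting UBC13-driven polyubiquitin chain formation, inhibition measured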
T7 sequence (P61088 whole entry): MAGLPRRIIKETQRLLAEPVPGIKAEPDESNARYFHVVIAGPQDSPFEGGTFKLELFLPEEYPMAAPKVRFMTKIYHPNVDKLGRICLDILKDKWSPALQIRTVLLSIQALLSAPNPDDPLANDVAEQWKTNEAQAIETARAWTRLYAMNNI

[26] = Trypanosoma cruzi growth suppression in host cells – NIH3T3 host cells, beta-gal luminescence, confirmation (AID 2044); type: functional, cell-based;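 note: intracellular parasites grown in NIH/3T3 mouse fibroblasts as host cells; luminescent beta-galactosidase reporter signal from transgenic T. cruzi replicating inside host cells; inhibitors lower the luminescence signal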
[27] = NIH3T3 cell viability loss – ATP luminescence, mouse fibroblasts, counter-screen, dose response (AID 2010); type: functional, cell-based;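 note: cells exposed to compound for about 90 hours before reading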

Structure (SMILES): Cc1cc(C(=O)O)ccc1-c1ccc(/C=C2\NC(=O)N(Cc3ccc(F)cc3)C2=O)o1
IC50 [1]: 20.8 µM (active)
IC50 [2]: 42 µM (active)
EC50 [3]: 191 µM (active)
IC50 [4]: > 100 µM (active)
IC50 [5]: 3.42 µM (active)
EC50 [6]: 195 µM (active)

Structure (SMILES): COc1cc(NS(=O)(=O)c2ccc(Nc3nc(-c4ccccc4)cs3)cc2)nc(OC)n1
CC50 [7]: 11.3 µM (active)
IC50 [8]: 4.49 µM (active)

Structure (SMILES): CC(C)(C)OC(=O)[C@H](Cc1ccccc1)NC(=O)c1[nH]cnc1C(=O)NC1CCN(C(=O)OC(C)(C)C)CC1
AC50 [9]: 19 µM (active)
IC50 [8]: 5.3 µM (active)

IC50 [8]: 3.14 µM (active)
Structure (SMILES): CNC(=O)c1ccc(NC(=O)CC23CC4CC(CC(C4)C2)C3)cc1

IC50 [10]: > 50 µM (inactive)
Structure (SMILES): Cc1ccc(NC(=O)CSc2nnc([C@H](C)NC(=O)OC(C)(C)C)o2)c(C)c1

IC50 [10]: > 50 µM (inactive)
Structure (SMILES): CCNc1ccc2c(Cl)cc(=O)oc2c1

EC50 [11]: > 79.4 µM (not active)
EC50 [12]: > 79.4 µM (not active)
IC50 [13]: 21.2 µM (not active)
EC50 [14]: > 79.4 µM (not active)
Structure (SMILES): CC(C)(O)C#Cc1ccc(CN2CCN(C3CCCCC3)C(CCO)C2)cc1 (centres undefined)

IC50 [10]: > 50 µM (inactive)
Structure (SMILES): CCc1c(C)nc2ncnn2c1N1CCC(C(=O)Nc2ccccc2)CC1

IC50 [15]: 105 µM (active)
IC50 [10]: > 50 µM (inactive)
Structure (SMILES): COCCNCC(=O)Nc1nc(C)cs1

Structure (SMILES): Cc1ccc(S(=O)(=O)/C(=C/Cl)NC(=O)c2ccccc2)cc1
EC50 [16]: 6.37 µM (active)
IC50 [17]: > 20 µM (inactive)
IC50 [18]: > 20 µM (inactive)
IC50 [19]: 3.32 µM (active)
EC50 [20]: 14.3 µM (active)
IC50 [21]: 3.6 µM (active)

Structure (SMILES): CCCCn1c(N)c(N(CCOC)C(=O)c2cc(-c3ccc(OC)c(OC)c3)nc3ccccc23)c(=O)[nH]c1=O
IC50 [1]: 7.62 µM (active)
IC50 [2]: 9.16 µM (active)

IC50 [22]: > 100 µM (inactive)
Structure (SMILES): O=C(Cn1ccnc1-c1ccccc1)c1ccc(O)c(O)c1

Structure (SMILES): O=C(/C=C/c1ccco1)N1CCN(S(=O)(=O)c2cccc([N+](=O)[O-])c2)CC1
IC50 [1]: 15.5 µM (active)
IC50 [2]: 23.6 µM (active)

Structure (SMILES): Cc1ccc(O)c(/N=C/c2cc(Cc3ccccc3)cc([N+](=O)[O-])c2O)c1
EC50 [16]: 6.21 µM (active)
IC50 [15]: 37.8 µM (active)
IC50 [17]: > 20 µM (inactive)
IC50 [18]: > 20 µM (inactive)
EC50 [23]: 13.8 µM (active)
IC50 [19]: 12.4 µM (inactive)
EC50 [24]: 3.37 µM (active)
EC50 [20]: 9.92 µM (active)
IC50 [21]: > 20 µM (inactive)

IC50 [25]: > 20 µM (inactive)
Structure (SMILES): Cn1c(=O)c2c(ncn2Cc2ccccc2)n(C)c1=O

Structure (SMILES): COc1ccc(/C=N/NS(=O)(=O)c2ccc(F)cc2)cc1COc1cc(F)ccc1[N+](=O)[O-]
EC50 [16]: > 20 µM (inactive)
EC50 [26]: 2.19 µM (active)
IC50 [17]: > 20 µM (inactive)
IC50 [18]: > 20 µM (inactive)
IC50 [19]: > 20 µM (inactive)
EC50 [27]: > 60 µM (inconclusive)
EC50 [20]: > 20 µM (inactive)
IC50 [21]: 6.45 µM (active)
